Reference: patent US20260216174A1, “TREATMENT OF ER+ BREAST CANCER COMPRISING HOMOLOGOUS RECOMBINATION DEFICIENCY USING PARG INHIBITOR” (IDEAYA BIOSCIENCES, INC., priority 2023, published 2026)
One block for each compound: values may come before it.

Legend:
HBCx-34 tumor = assay: Patient-derived xenograft (PDX) study with HBCx-34; type: in vivo, Athymic Nude-Foxn1^nu mice; conditions: HBCx-34 PDX
Procedure: Female Athymic Nude-Foxn1^nu mice with an established growing HBCx-34 tumor between 108 and 288 mm^3 were randomized into 4 treatment groups of 10 mice each, according to the groups listed in Table 7A, tumor-bearing mice receive estrogen diluted in drinking water (β-estradiol, 8.5 mg/l), from the date of tumor implant to the end of the study. In Table 7A, the abbreviation “p.o.” refers to oral administration, the abbreviation “QD” refers to administration once a day, and the abbreviation “BID” refers to administration twice a day.
Tumors were measured and mice were weighed twice per week during the experimental period. The tumor volume (mm^3) was estimated using the formula: tumor volume (TV)=a×b2/2, where “a” and “b” were the long and the short diameter of a tumor, respectively. The TVs were used to calculate tumor growth inhibition (TGI, an indicator of antitumor activity) using the formula TGI %: (1−{T/T0/Ct/C0}/1−{C0/Ct})×100 where Tt=median tumor volume of treated at time t, T0=median tumor volume of treated at time 0, Ct=median tumor volume of control at time t and C0=median tumor volume of control at time 0. […] Tumor regression represents tumor volume less than the initial tumor volume on DO.
Female Athymic Nude-Foxn1^nu mice with an established growing HBCx-34 tumor between 108 and 288 mm^3 were randomized into 2 treatment groups of 8 mice each, according to the groups listed in Table 8A, tumor-bearing mice receive estrogen diluted in drinking water (β-estradiol, 8.5 mg/l), from the date of tumor implant to the end of the study. In Table 8A, the abbreviation “p.o.” refers to oral administration, the abbreviation “QD” refers to administration once a day.
Tumors were measured and mice were weighed twice per week during the experimental period. The tumor volume (mm^3) was estimated using the formula: tumor volume (TV)=a×b2/2, where “a” and “b” were the long and the short diameter of a tumor, respectively. The TVs were used to calculate tumor growth inhibition (TGI, an indicator of antitumor activity) using the formula TGI %: (1−{T/T0/Ct/C0}/1−{C0/Ct})×100 where Tt=median tumor volume of treated at time t, T0=median tumor volume of treated at time 0, Ct=median tumor volume of control at time t and C0=median tumor volume of control at time 0. […] Tumor regression represents tumor volume less than the initial tumor volume at DO.

Hs 578T = assay: Cellular antiproliferative response, Assay 1 (nuclear counts); type: cell-based; conditions: Homo sapiens, Wild Type, Assay 1, 5 population doublings, read-out: Log10 (IC50) (converted)
Procedure: (§1) Compound A was tested in a cell line panel. Cell lines were obtained from several different sources such as the American Type Culture Collection, Korean Cell Line Bank and Japanese Collection of Research Bioresources Cell Bank and cultured in the media as recommended by the source cell banks. All cell lines were grown at 37° C. at 5% CO2 and were passaged once or twice weekly with 0.25% Trypsin-EDTA (Fisher Scientific #25200056) and re-plated in 75 cm^2 culture flasks (Corning #3814).
(§2) The cell lines were plated in 96 well plates (Corning #3904) at density of 1000 cells/well. DMSO dissolved Compound A was then added using the TECAN liquid dispenser to generate a 9-point dose curve with a 3-fold dilution and 10 μM starting, top concentration. After 5 population doublings, the cell lines were treated with 5 μM of Vybrant DyeCycle Green (Life Technologies #V35004), incubated for 60 minutes and imaged using the Incucyte® S3 system to determine the nuclear counts. For all cell lines, the nuclear counts were normalized to the DMSO treated wells and the IC50 was determined using the standard four parametric dose response equation in GraphPad Prism Software.

SK-BR-3 = assay: as above; type: cell-based; conditions: Homo sapiens; SK-BR-3, Wild Type, Assay 1, 5 population doublings; read-out: Log10 (IC50) (converted)
Procedure: as §1, §2

MDA-MB-231 = assay: as above; type: cell-based; conditions: Homo sapiens; MDA-MB-231, Wild Type, Assay 1, 5 population doublings; read-out: Log10 (IC50) (converted)
Procedure: as §1, §2

T-47D = assay: as above; type: cell-based; conditions: Homo sapiens, T47D, Wild Type, Assay 1, 5 population doublings, read-out: Log10 (IC50) (converted)
Procedure: as §1, §2

BT-20 = assay: as above; type: cell-based; conditions: Homo sapiens; BT-20, Wild Type, Assay 1, 5 population doublings; read-out: Log10 (IC50) (converted)
Procedure: as §1, §2

CAMA-1 = assay: as above; type: cell-based; conditions: Homo sapiens; CAMA-1, Wild Type, Assay 1, 5 population doublings; read-out: Log10 (IC50) (converted)
Procedure: as §1, §2

BT-549 = assay: as above; type: cell-based; conditions: Homo sapiens; BT-549, Wild Type, Assay 1, 5 population doublings; read-out: Log10 (IC50) (converted)
Procedure: as §1, §2

MDA-MB-453 = assay: as above; type: cell-based; conditions: Homo sapiens; MDA-MB-453, Wild Type, Assay 1, 5 population doublings; read-out: Log10 (IC50) (converted)
Procedure: as §1, §2

MCF7 = assay: as above; type: cell-based; conditions: Homo sapiens; MCF7, Wild Type, Assay 1, 5 population doublings; read-out: Log10 (IC50) (converted)
Procedure: as §1, §2

KPL-1 = assay: as above; type: cell-based; conditions: KPL-1, Wild Type, Assay 1, 5 population doublings; read-out: Log10 (IC50) (converted)
Procedure: as §1, §2

MDA-MB-415 = assay: as above; type: cell-based; conditions: Homo sapiens; MDA-MB-415, Wild Type, Assay 1, 5 population doublings; read-out: Log10 (IC50) (converted)
Procedure: as §1, §2

IC50 (SK-BR-3): 0.131 µM
IC50 (MDA-MB-231): 0.85 µM
IC50 (T-47D): 3.09 µM
IC50 (BT-20): 2.41 µM
IC50 (BT-549): 0.983 µM
IC50 (MDA-MB-453): 2.02 µM
IC50 (MCF7): 2.38 µM
IC50 (MDA-MB-415): 2.83 µM
Structure (SMILES): C[C@H]1CN(c2cc(S(=O)(=O)NC3(C)CC3)cc3c2cnn3-c2nnc(C(F)F)s2)C[C@H](C)N1 [Compound A, 1-(5-(difluoromethyl)-1,3,4-thiadiazol-2-yl)-4-((3S,5S)-3,5-dimethylpiperazin-1-yl)-N-(1-methylcyclopropyl)-1H-indazole-6-sulfonamide]
Regressions (%) (HBCx-34 tumor; 100 mg/kg QD p.o., Day 45): 100%
TGI (%) D45 (HBCx-34 tumor; 100 mg/kg QD p.o., Day 45): 110%
partial regression (mice) (HBCx-34 tumor; Compound A study, 100 mg/kg): all mice achieving partial regression
IC50 (Hs 578T): 3 µM
IC50 (CAMA-1): 0.844 µM
IC50 (KPL-1): 0.431 µM

Structure (SMILES): CC(C)C(=O)N1CCN(c2cc(S(=O)(=O)NC3(C#N)CC3)cc3c2cnn3-c2nnc(C(F)F)s2)C[C@H]1C [Compound B]
Regressions (%) (HBCx-34 tumor; 30 mg/kg QD p.o., Day 35): 10%
TGI (%) D35 (HBCx-34 tumor; 30 mg/kg QD p.o., Day 35): 77%
partial regression (mice) (HBCx-34 tumor; 30 mg/kg once daily): 1/10
tumor stabilization (HBCx-34 tumor; 30 mg/kg once daily): tumor stabilization for all mice
TGI (%) D35 (HBCx-34 tumor; 100 mg/kg BID p.o. (200 mg/kg/day), Day 35): 106%
Regressions (%) (HBCx-34 tumor; 100 mg/kg BID p.o., Day 35): 80%
Regressions (%) (HBCx-34 tumor; 100 mg/kg QD p.o., Day 35): 80%
TGI (%) D35 (HBCx-34 tumor; 100 mg/kg QD p.o., Day 35): 103%
partial tumor regression (mice) (HBCx-34 tumor; 100 mg/kg once daily): 8/10
partial tumor regression (mice) (HBCx-34 tumor; 100 mg/kg twice daily (200 mg/kg/day)): 8/10
